What all share (assay type): in vivo
Series [1] deals with ALS resistant Cyperus iria. Description: Post-emergence test experiment (Table 4), weed control. The conditions noted are these: 100 g/ha, after 3 weeks. An excerpt: (§1) The activity level standard of harmful plants destruction (i. e. growth inhibition rate) is as follows: • Level 5: the growth inhibition rate is greater than 85%; • Level 4: the growth inhibition rate is equal to or greater than 60% and less than 85%; • Level 3: the growth inhibition rate is equal to or greater than 40% and less than 60%; • Level 2: the growth inhibition rate is equal to or greater than 20% and less than 40%; • Level 1: the growth inhibition rate is equal to or greater than 5% and less than 20%; • Level 0: the growth inhibition rate is less than 5%;
(§2) The above described growth inhibition rate is fresh weight inhibition rate.
(§3) Post-emergence test experiment: Monocotyledonous and dicotyledonous weed seeds and main crop seeds (i. e. wheat, corn, rice, soybean, cotton, oilseed, millet and sorghum.) were put into a plastic pot loaded with soil. Then covered with 0.5-2 cm soil, the seeds were allowed to grow in good greenhouse environment. The test plants were treated at 2-3 leaf stage 2 weeks after sowing. The test compounds of the invention were dissolved with acetone respectively, then added with tween-80, and using 1.5 liters per hectare of an emulsible concentrate of methyl oleate as a synergist, and diluted by certain amount of water to certain concentration. The solution was sprayed to the plants with a sprayer. Then the plants were cultured for 3 weeks in the greenhouse, and the experiment result of weed controlling effect after 3 weeks was listed in tables 3-4.
(§4) […] Echinochloa crusgalli and Cyperus iria were collected from Ningxia Hui Autonomous Region of China, which had evolved resistance to ALS inhibiting herbicides. • Control compound A:

The test system of series [2] is ALS resistant Echinochloa crusgalli. Described as above. To be noted: 100 g/ha, after 3 weeks.
From the text: as §1, §2, §3, §4

The next series concerns Japonica rice. Description: Post-emergence test experiment (Table 4), crop safety. The conditions noted are these: 100 g/ha, after 3 weeks.
From the text: as §1, §2, §3, §4

For the next series, the system named is Indica rice. The description is as above. To be noted: 100 g/ha, after 3 weeks.
From the text: as §1, §2, §3, §4

The test system of the next series is Setaria viridis. Description: Post-emergence test experiment (Table 3, 1000 g/ha). The conditions noted are these: post-emergence spray, after 3 weeks, fresh weight inhibition. In a few lines: (§5)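 Activity graded levels 0-5 by fresh-weight inhibition (level 5 above 85%, level 0 below 5%), assessed 3 weeks after treatment. Plants grown in greenhouse pots were sprayed post-emergence at 2-3 leaves using acetone/tween-80 solutions with methyl oleate synergist (1.5 L/ha).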

Another series concerns Leptochloa chinensis. Described as above. The conditions noted are these: post-emergence spray, after 3 weeks, fresh weight inhibition. In a few lines: as §5
The test system of series [3] is Monochoria vaginalis. Described as above. To be noted: post-emergence spray, after 3 weeks, fresh weight inhibition. A digest of the protocol: as §5
The subject of the next series is Digitaria sanguinalis. The series is described as above. To be noted: post-emergence spray, after 3 weeks, fresh weight inhibition. In a few lines:
as §5

For a further series, the system named is Abutilon theophrasti. The series is described as above. To be noted: post-emergence spray, after 3 weeks, fresh weight inhibition. In a few lines: as §5
Another series relates to Galium spurium. The series is described as above. To be noted: post-emergence spray, after 3 weeks, fresh weight inhibition. In a few lines:
as §5

Series [4] relates to Monochoria vaginalis. Description: Weed control effect evaluation in rice field. The conditions noted are these: 50 g/ha, paddy water application at 0.5 leaf stage, 14 days after treatment, weeds resistant to pyrazosulfuron-ethyl and penoxsulam.
From the text: as §1
Transplanted rice safety evaluation and weed control effect evaluation in rice field:
Rice field soil was loaded into a 1/1,000,000 ha pot. The seeds of Monochoria vaginalis were sowed and gently covered with soil, then left to stand still in greenhouse in the state of 0.5-1 cm of water storage. It was kept at 3-4 cm of water storage thereafter. The weeds were treated by dripping the WP or SC water diluents prepared according to the common preparation method of the compounds of the present invention with pipette homogeneously to achieve specified effective amount when Monochoria vaginalis reached 0. 5 leaf stage.
The fertility condition of Monochoria vaginalis 14 days and rice 21 days after the treatment of the compound of the invention with the naked eye.
Note: The seeds of Monochoria vaginalis were collected from Heilongjing Province of China.

Molecules are shown by their SMILES.

The results in this text go back to US12391648B2, “Pyridyloxy thioester derivative and preparation method therefor, herbicidal composition, and application” (Qingdao Kingagroot Chemical Compound Co., Ltd., priority 2018, dated 2025).

`COc1cc(OC)nc(Oc2cccc(Oc3nc(OC)cc(OC)n3)c2C(=O)O)n1` [Bispyribac-sodium, reference compound]: in [1], the “ALS resistant Cyperus iria, activity level (growth inhibition rate)” value was 1 (Level 1: the growth inhibition rate is equal to or greater than 5% and less than 20%). In addition, the “ALS resistant Echinochloa crusgalli, activity level (growth inhibition rate)” value in [2] was 1 (Level 1: the growth inhibition rate is equal to or greater than 5% and less than 20%). For the same molecule, in the series on Japonica rice, the “Japonica rice, activity level (growth inhibition rate)” value is 4 (Level 4: the growth inhibition rate is equal to or greater than 60% and less than 85%). In addition, in the series on Indica rice, the “Indica rice, activity level (growth inhibition rate)” value is 2 (Level 2: the growth inhibition rate is equal to or greater than 20% and less than 40%).
As to `CCCC(C)CSC(=O)C(C)Oc1nc(F)c(Cl)c(N)c1Cl` (centres unmarked) [Compound 152], the “Activity level (growth inhibition rate) Setaria viridis” value in the series on Setaria viridis is 5 (Level 5: the growth inhibition rate is greater than 85%). Further, the “Activity level (growth inhibition rate) Leptochloa chinensis” value with Leptochloa chinensis was 5 (Level 5: the growth inhibition rate is greater than 85%). Moreover, in the series with Monochoria vaginalis [3], the “Activity level (growth inhibition rate) Monochoria Vaginalis” value was 5 (Level 5: the growth inhibition rate is greater than 85%). Also, in the series on Digitaria sanguinalis, the “Activity level (growth inhibition rate) Digitaria sanguinalis” value was 5 (Level 5: the growth inhibition rate is greater than 85%). For the same molecule, in the series with Abutilon theophrasti, the “Activity level (growth inhibition rate) Abutilon theophrasti” value is 5 (Level 5: the growth inhibition rate is greater than 85%). Also, in the series with Galium spurium, the “Activity level (growth inhibition rate) Galium spurium” value was 5 (Level 5: the growth inhibition rate is greater than 85%).
As to `CCC(C)CCSC(=O)C(C)Oc1nc(F)c(Cl)c(N)c1Cl` (centres unmarked) [Compound 153], the “Activity level (growth inhibition rate) Setaria viridis” value in the series with Setaria viridis was 5 (Level 5: the growth inhibition rate is greater than 85%). The “Activity level (growth inhibition rate) Leptochloa chinensis” value with Leptochloa chinensis is 5 (Level 5: the growth inhibition rate is greater than 85%). For the same molecule, the “Activity level (growth inhibition rate) Monochoria Vaginalis” value in the series with Monochoria vaginalis [3] was 5 (Level 5: the growth inhibition rate is greater than 85%). In addition, in the series on Digitaria sanguinalis, the “Activity level (growth inhibition rate) Digitaria sanguinalis” value is recorded as 5 (Level 5: the growth inhibition rate is greater than 85%). In addition, the “Activity level (growth inhibition rate) Abutilon theophrasti” value in the series on Abutilon theophrasti is 5 (Level 5: the growth inhibition rate is greater than 85%). Besides, the “Activity level (growth inhibition rate) Galium spurium” value with Galium spurium is listed as 5 (Level 5: the growth inhibition rate is greater than 85%).
In the case of `CC(C)CCCSC(=O)C(C)Oc1nc(F)c(Cl)c(N)c1Cl` (centres unmarked) [Compound 154], in the series on Setaria viridis, the “Activity level (growth inhibition rate) Setaria viridis” value is given as 5 (Level 5: the growth inhibition rate is greater than 85%). Besides, the “Activity level (growth inhibition rate) Leptochloa chinensis” value with Leptochloa chinensis is reported as 5 (Level 5: the growth inhibition rate is greater than 85%). Moreover, the “Activity level (growth inhibition rate) Monochoria Vaginalis” value with Monochoria vaginalis [3] was 5 (Level 5: the growth inhibition rate is greater than 85%). Moreover, in the series with Digitaria sanguinalis, the “Activity level (growth inhibition rate) Digitaria sanguinalis” value was 5 (Level 5: the growth inhibition rate is greater than 85%). The “Activity level (growth inhibition rate) Abutilon theophrasti” value with Abutilon theophrasti is 5 (Level 5: the growth inhibition rate is greater than 85%). In the series on Galium spurium, the “Activity level (growth inhibition rate) Galium spurium” value is on record as 5 (Level 5: the growth inhibition rate is greater than 85%).
Take `CC(Oc1nc(F)c(Cl)c(N)c1Cl)C(=O)SCC#N` (centres unmarked) [Compound 155]: in the series with Setaria viridis, the “Activity level (growth inhibition rate) Setaria viridis” value is 5 (Level 5: the growth inhibition rate is greater than 85%). Also, the “Activity level (growth inhibition rate) Leptochloa chinensis” value with Leptochloa chinensis was 5 (Level 5: the growth inhibition rate is greater than 85%). Moreover, in the series with Monochoria vaginalis [3], the “Activity level (growth inhibition rate) Monochoria Vaginalis” value was 5 (Level 5: the growth inhibition rate is greater than 85%). Besides, in the series on Digitaria sanguinalis, the “Activity level (growth inhibition rate) Digitaria sanguinalis” value was 5 (Level 5: the growth inhibition rate is greater than 85%). For the same molecule, the “Activity level (growth inhibition rate) Abutilon theophrasti” value with Abutilon theophrasti is 5 (Level 5: the growth inhibition rate is greater than 85%). Besides, the “Activity level (growth inhibition rate) Galium spurium” value in the series with Galium spurium is listed as 5 (Level 5: the growth inhibition rate is greater than 85%).
As for `CC(Oc1nc(F)c(Cl)c(N)c1Cl)C(=O)SC[N+](=O)[O-]` (centres unmarked) [Compound 156], in the series with Setaria viridis, the “Activity level (growth inhibition rate) Setaria viridis” value is given as 5 (Level 5: the growth inhibition rate is greater than 85%). For the same molecule, in the series on Leptochloa chinensis, the “Activity level (growth inhibition rate) Leptochloa chinensis” value was 5 (Level 5: the growth inhibition rate is greater than 85%). In addition, the “Activity level (growth inhibition rate) Monochoria Vaginalis” value with Monochoria vaginalis [3] was 5 (Level 5: the growth inhibition rate is greater than 85%). Besides, in the series with Digitaria sanguinalis, the “Activity level (growth inhibition rate) Digitaria sanguinalis” value is recorded as 5 (Level 5: the growth inhibition rate is greater than 85%). Further, in the series on Abutilon theophrasti, the “Activity level (growth inhibition rate) Abutilon theophrasti” value is reported as 5 (Level 5: the growth inhibition rate is greater than 85%). For the same molecule, in the series with Galium spurium, the “Activity level (growth inhibition rate) Galium spurium” value is on record as 5 (Level 5: the growth inhibition rate is greater than 85%).
Take `CC(Oc1nc(F)c(Cl)c(N)c1Cl)C(=O)SCC(F)F` (centres unmarked) [Compound 157]: in the series with Setaria viridis, the “Activity level (growth inhibition rate) Setaria viridis” value was 5 (Level 5: the growth inhibition rate is greater than 85%). The “Activity level (growth inhibition rate) Leptochloa chinensis” value in the series on Leptochloa chinensis is given as 5 (Level 5: the growth inhibition rate is greater than 85%). Also, the “Activity level (growth inhibition rate) Monochoria Vaginalis” value in the series on Monochoria vaginalis [3] is reported as 5 (Level 5: the growth inhibition rate is greater than 85%). Further, the “Activity level (growth inhibition rate) Digitaria sanguinalis” value in the series on Digitaria sanguinalis is recorded as 5 (Level 5: the growth inhibition rate is greater than 85%). The “Activity level (growth inhibition rate) Abutilon theophrasti” value in the series with Abutilon theophrasti is listed as 5 (Level 5: the growth inhibition rate is greater than 85%). The “Activity level (growth inhibition rate) Galium spurium” value in the series on Galium spurium is 5 (Level 5: the growth inhibition rate is greater than 85%).
As for `CC(Oc1nc(F)c(Cl)c(N)c1Cl)C(=O)SCCF` (centres unmarked) [Compound 158], in the series with Setaria viridis, the “Activity level (growth inhibition rate) Setaria viridis” value is recorded as 5 (Level 5: the growth inhibition rate is greater than 85%). Besides, in the series with Leptochloa chinensis, the “Activity level (growth inhibition rate) Leptochloa chinensis” value was 5 (Level 5: the growth inhibition rate is greater than 85%). Moreover, the “Activity level (growth inhibition rate) Monochoria Vaginalis” value in the series with Monochoria vaginalis [3] is on record as 5 (Level 5: the growth inhibition rate is greater than 85%). Also, the “Activity level (growth inhibition rate) Digitaria sanguinalis” value in the series on Digitaria sanguinalis is recorded as 5 (Level 5: the growth inhibition rate is greater than 85%). In the series on Abutilon theophrasti, the “Activity level (growth inhibition rate) Abutilon theophrasti” value is 5 (Level 5: the growth inhibition rate is greater than 85%). Also, the “Activity level (growth inhibition rate) Galium spurium” value with Galium spurium is 5 (Level 5: the growth inhibition rate is greater than 85%).
As for `CSC(=O)C(C)Oc1nc(F)c(Cl)c(NCc2ccc(C(F)(F)F)o2)c1Cl` (centres unmarked) [Compound 161], the “Activity level (growth inhibition rate) Setaria viridis” value in the series with Setaria viridis is on record as 5 (Level 5: the growth inhibition rate is greater than 85%). In the series with Leptochloa chinensis, the “Activity level (growth inhibition rate) Leptochloa chinensis” value is 5 (Level 5: the growth inhibition rate is greater than 85%). Besides, in the series with Monochoria vaginalis [3], the “Activity level (growth inhibition rate) Monochoria Vaginalis” value was 5 (Level 5: the growth inhibition rate is greater than 85%). The “Activity level (growth inhibition rate) Digitaria sanguinalis” value in the series with Digitaria sanguinalis is recorded as 5 (Level 5: the growth inhibition rate is greater than 85%). For the same molecule, the “Activity level (growth inhibition rate) Abutilon theophrasti” value in the series with Abutilon theophrasti is reported as 5 (Level 5: the growth inhibition rate is greater than 85%). Further, the “Activity level (growth inhibition rate) Galium spurium” value in the series on Galium spurium is listed as 5 (Level 5: the growth inhibition rate is greater than 85%).
`COc1cnc(OC)n2nc(NS(=O)(=O)c3c(OCC(F)F)cccc3C(F)(F)F)nc12` [Penoxsulam, reference compound]: the “Monochoria Vaginalis, activity standard level 0-5” value in the series with Monochoria vaginalis [4] was 1 (Level 1: the growth inhibition rate is equal to or greater than 5% and less than 20%).
